Common to all, as to assay: relative viability (nuclei count vs DMSO), 5 days (fraction); higher = more cells survive
Compound in the assay “Carboplatin + OSI-027”: C1CC(C1)(C(=O)O)C(=O)O.[NH2-].[NH2-].[Pt+2] [Carboplatin] + COc1cccc2cc(-c3nc([C@H]4CC[C@H](C(=O)O)CC4)n4ncnc(N)c34)[nH]c12 [OSI-027] (partner 0.5 µM)
Put shortly: (§1)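 Each reported value is a median over duplicate plates. It expresses relative viability: treated-well nuclei count divided by vehicle-well nuclei count. Lung cancer cell lines in 1536-well plates were dosed by pin tool a day after seeding, alone with one drug or with a fixed anchor-drug dose plus five library-drug doses (not always all listed) in √10 steps, and nuclei were counted after 5 days.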

Compound in the assay “GSK126 + Lapatinib”: CC[C@H](C)N1C=C(C2=C(C=C(C=C21)C3=CN=C(C=C3)N4CCNCC4)C(=O)NCC5=C(C=C(NC5=O)C)C)C [GSK126] + CS(=O)(=O)CCNCc1ccc(-c2ccc3ncnc(Nc4ccc(OCc5cccc(F)c5)c(Cl)c4)c3c2)o1 [Lapatinib] (partner 2 µM)
Put shortly: as §1

Compound in the assay “MLN4924 + Luminespib”: NS(=O)(=O)OC[C@@H]1C[C@@H](n2ccc3c(N[C@H]4CCc5ccccc54)ncnc32)C[C@@H]1O [MLN4924] + CCNC(=O)c1noc(-c2cc(C(C)C)c(O)cc2O)c1-c1ccc(CN2CCOCC2)cc1 [Luminespib] (partner 0.01 µM)
In a few lines:
as §1

Compound in the assay “MLN4924 + Foretinib”: NS(=O)(=O)OC[C@@H]1C[C@@H](n2ccc3c(N[C@H]4CCc5ccccc54)ncnc32)C[C@@H]1O [MLN4924] + COc1cc2c(Oc3ccc(NC(=O)C4(C(=O)Nc5ccc(F)cc5)CC4)cc3F)ccnc2cc1OCCCN1CCOCC1 [Foretinib] (partner 0.25 µM)
Put shortly: as §1

We go through one cell line from the supplement of paper PMC10307832.

With UMC-11, the relative viability was determined as 0.462 with Carboplatin + OSI-027 (first compound 0.08 µM); 0.432 with Carboplatin + OSI-027 (first compound 0.253 µM); 0.456 in the assay with Carboplatin + OSI-027 (first compound 0.8 µM); 0.462 with Carboplatin + OSI-027 (first compound 2.53 µM); 0.405 in the assay with Carboplatin + OSI-027 (first compound 8 µM); 1.05 with GSK126 + Lapatinib (first compound 0.08 µM). Further, the relative viability with GSK126 + Lapatinib (first compound 0.253 µM) came to 0.998; with GSK126 + Lapatinib (first compound 0.8 µM) it was 1.13; with GSK126 + Lapatinib (first compound 2.53 µM), 0.796; with GSK126 + Lapatinib (first compound 8 µM), 0.959; with MLN4924 + Luminespib (first compound 0.04 µM) it was 0.598; with MLN4924 + Luminespib (first compound 0.1265 µM), 0.351. Besides, the relative viability in the assay with MLN4924 + Luminespib (first compound 0.4 µM) is 0.285; with MLN4924 + Luminespib (first compound 1.265 µM) it was 0.17; in the assay with MLN4924 + Luminespib (first compound 4 µM) it was 0.182; with MLN4924 + Foretinib (first compound 0.04 µM), 0.57; with MLN4924 + Foretinib (first compound 0.1265 µM) it was 0.307; with MLN4924 + Foretinib (first compound 0.4 µM), 0.298. For the same cell line, the relative viability was found to be 0.191 in the assay with MLN4924 + Foretinib (first compound 1.265 µM) and 0.173 with MLN4924 + Foretinib (first compound 4 µM).
